According to patent publication US8361970B2, “Growth factor binding molecules” (University of South Florida, priority 2000, dated 2013):
Values joined by “and” are separate entries in the source; they are usually repeats but may differ in a detail not shown here. Equal values may be shown once. Read-outs that look alike come from different tables or passages of the source.

How the values were obtained:
PDGF-BB = target: T1, PDGF-BB (Homo sapiens, UniProt P01127); assay: Binding to PDGF-BB by native PAGE / SDS-PAGE gel electrophoresis
T1 construct: host or cells: NIH 3T3 cells carry the receptor
Protocol: GFB-111 (50 μM) is incubated with buffer A (PBS 0.5% BSA) or PDGF-BB (1, 3 and 4µM in buffer A) at room temperature for 10 minutes. The mixtures are then loaded onto a native 4% PAGE. The gel is then stained with silver nitrate. Duplicate lanes are run in the same gel but are not stained. Bands corresponding to the boxed area are cut out of the lanes of the gel that is not stained, denatured with SDS-PAGE loading buffer (Tris 100 mM pH 6.8, 15% Glycerol, 3% SDS, 7.5% b-mercaptoethanol, 0.05% bromophenol blue), loaded onto a 4% SDS-PAGE gel and silver stained.
The structure activity relationship results in Table 1 are consistent with GFB-111 being a PDGF-BB binding molecule. […] PDGF to its receptor on NIH 3T3 cells is determined by gel electrophoresis by mixing GFB-111 with PDGF-BB. […] FIG. 2B illustrates that the GFB-111 standard (lane 5) as well as the GFB-111 band cut out of FIG. 2A gel (lane 1) migrates on SDS-PAGE as a single band that elutes faster than the dye front. Their separation on SDS-PAGE (lane 2) is confirmed by mixing PDGF-BB standard (lane 4) and GFB-111 standard (lane 5).
GFB-111 is incubated with increasing concentrations of PDGF-BB and the mixtures are then loaded onto native PAGE. […]

[1] = system: human lung adenocarcinoma A-549; assay: Antitumor efficacy, A-549 xenograft in nude mice; assay type: in vivo; details: for Inhibition of A-549 tumor growth in nude mice: 50 mg per kg per day
[2] = system: VEGF-stimulated MAP kinase activation; assay: Inhibition of VEGF-stimulated MAP kinase (p42/p44, Erk2/Erk1) activation in Flk-1/3T3 cells; assay type: cell-based; details: for IC50: Flk-1/3T3, VEGF stimulated
Protocol: (§1) Starved NIII 3T3 cells (PDGF-BB and PDGF-AA), NIH 3T3 cells overexpressing either EGFR (EGF) or Flk-1 (VEGF) are pre-treated with the indicated concentrations of GFB-111 for 5 minutes before 10 minutes of stimulation with PDGF-BB (10 ng/ml), PDGF-AA (10 ng/ml), EGF (100 ng/ml) and VEGF (50 ng/ml). Cell lysates are run on SDS-PAGE gels, then transferred to nitrocellulose and Western blotted with anti-phosphotyrosine (4G 10) or anti-phosphorylated Erk1/Erk2 (New England Biolabs).
(§2) In other experiments, starved NIH 3T3 cells (PDGF-AA, PDGF-BB, aFGF, bFGF), NIH 3T3 cells overexpressing EGFR. IGF-1R or Flk-1 and the human breast carcinoma SkBr3 that overexpresses ErbB2 (HRGβ) are pretreated with GFB-111 (100 μM) for 5 min before 10 min stimulation with the indicated growth factors at the concentrations shown above and aFGF (10 ng/ml), bFGF (50 ng/ml), IGF-1 (50 ng/ml) and HRGβ (10 ng/ml). Cell lysates are then immunoblotted with anti-phospho Erk1/Erk2 as described above.
(§3) In order to identify molecules that would bind vascular endothelial growth factor (VEGF), Flk-1/3T3 cell-based assay is used that relies on VEGF-stimulation of its receptor, Flk-1, tyrosine phosphorylation and subsequent MAP-kinase activation. The assay used herein identical to that used for PDGF, except that NIH 3T3 cells that overexpress Flk-1 are used. GFB-116, which has four identical loops with the sequence GKGK (SEQ ID NO. 10) is shown to be very potent and selective toward blocking the ability of VEGF to stimulate Flk-1 tyrosine phosphorylation and subsequent MAP-kinase activation as measured by phospho erk-1 and erk-2 also referred to in the Table as p42 and p44 (Table 4A). A preferred embodiment of the invention is a compound that binds to a vascular endothelial growth factor, of the general structure III (above) in which R is n-butyl, n-propyl, or benzyl, and X comprise covalently attached identical cyclic peptide loops wherein R1, R2, R3, and R4 are each amino acid side chains, as broadly defined above, that define a tetrapeptide sequence, wherein said tetrapeptide is covalently attached at the amino and carboxy termini of said tetrapeptide to 3-aminomethyl-5-aminobenzamide linking group, and wherein said tetrapeptide sequence is GKGK (SEQ ID NO. 10), GDGY (SEQ ID NO. 6), or functionally related derivatives thereof.

[3] = system: aFGF-stimulated MAP kinase activation of p42 and p44; assay: Inhibition of aFGF stimulation of p42/p44 MAP kinase in NIH 3T3 cells; assay type: cell-based
Protocol: as §2
The ability of growth factor binding agents in the library of growth factor binding agents to block an aFGF signal is measured by aFGF-stimulation of MAP kinase activation of p42 and p44 essentially as described above for VEGF. NIH 3T3 cells are used as the target cell. […] A preferred embodiment of the invention is a compound that binds to acidic fibroblast growth factor, of the general structure III, in which R is n-butyl, n-propyl, or benzyl, and X1, X2, X3, and X4 optionally comprise covalently attached cyclic peptide loops of the general structure II, wherein R1, R2, R3, and R4 are each amino acid side chains that define a tetrapeptide sequence, wherein said tetrapeptide is covalently attached at the amino and carboxy termini of said tetrapeptide to a 3-aminomethyl-5-aminobenzamide linking group, and wherein said tetrapeptide sequence is as given, for example, in Table 5.

[4] = system: VEGF-stimulated Flk-1 tyrosine phosphorylation; assay: Inhibition of VEGF-stimulated Flk-1 tyrosine phosphorylation in Flk-1/3T3 cells; assay type: cell-based
Protocol: as §1, §3

[5] = system: angiogenesis in A-549 tumors; assay: Angiogenesis: Factor VIII immunostaining and microvessel count in A-549 tumors; assay type: in vivo, nude mice; details: for Microvessel count (Mean ± SD) 250X / Microvessel count (Mean ± SD) 400X: A-549 tumor
Protocol: On the indicated termination day of each nude mouse experiment described above, (see also Table 2), the tumors are extracted and half frozen at −70° C., and half is fixed in 10% neutral buffered formalin for 6 hrs. After fixation the tissue samples are processed into paraffin blocks. Four micrometer-thick tissue sections are obtained from the paraffin blocks and stained with hematoxylin and eosin (H&E) (Richard-Allan Scientific, Kalamazoo, Mich.) using standard histologic techniques. Tissue sections are also subjected to immunostaining for Factor VIII using the avidin biotin peroxidase complex technique (Vectastatin Elite ABC Kit, Vector, Burlingame, Calif.). Rabbit polyclonal FVIII antibody (Von Willebrand Factor, Dako Corporation, Carpinteria, Calif.) is used at 1:400 dilution, following microwave antigen retrieval (4 cycles of 5 minutes each on high in 0.1M citrate buffer).

[6] = system: human medulloblastoma DaOY; assay: Antitumor efficacy, DaOY xenograft in nude mice; assay type: in vivo; details: 50 mg per kg per day
[7] = read-out: (IC50) Inhibition p42
[8] = read-out: (IC50) Inhibition p44
[9] = Flk-1/3T3, VEGF stimulated, read-out: (IC50) Inhibition Flk-1-Y-P

T1 sequence (P01127 82-190 limits assumed): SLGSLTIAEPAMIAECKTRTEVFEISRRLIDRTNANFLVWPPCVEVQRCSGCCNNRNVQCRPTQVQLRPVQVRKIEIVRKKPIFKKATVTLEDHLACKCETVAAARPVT

Row | Compound | Binding to PDGF-BB (complex on native PAGE) (PDGF-BB) | Inhibition of A-549 tumor growth in nude mice [1] | Block of VEGF-activation of the MAPKinases Erk1 and Erk2 ([2]; FIG. 13) | IC50 [2, 7] | IC50 [2, 8] | Block of aFGF-stimulation of MAP kinase activation of p42 and p44 ([3]; NIH 3T3) | IC50 [4, 9] | Microvessel count (Mean ± SD) 250X ([5]; 50 mpk) | Microvessel count (Mean ± SD) 400X ([5]; 50 mpk) | Inhibition of angiogenesis ([5]; A-549 tumors) | Inhibition of angiogenesis by microvessel counting ([5]; A-549 tumors, 50 mpk) | % Tumor growth inhibition ([1]; A-549, 50 mpk, day in parentheses in cell) | Growth of DaOY tumors [6] | aFGF-activation of Erk1/Erk2 ([3]; concentrations as high as 100 μM) | IC50 ([4]; read-out: IC50 VEGF-stimulated Flk-1 tyrosine phosphorylation and MAPK activation) | Microvessel count (Mean ± SD) 250X ([5]; 50 mpk, 50 mg/kg) | Microvessel count (Mean ± SD) 400X ([5]; 50 mpk, 50 mg/kg)
1 | GKGK [GFB-116] | does not bind | inhibits the growth | block | 5 µM | 5 µM | very effective | 0.3 µM | 5.56 ± 1.75 | 3.46 ± 1.19 | efficacious | 70% | – | – | – | – | – | –
2 | CCCCOc1c2cc(C(=O)Nc3cc4cc(c3)C(=O)NCC(=O)N[C@@H](CC(=O)O)C(=O)NCC(=O)N[C@@H](Cc3ccc(O)cc3)C(=O)NC4)cc1Cc1cc(C(=O)Nc3cc4cc(c3)C(=O)NCC(=O)N[C@@H](CC(=O)O)C(=O)NCC(=O)N[C@@H](Cc3ccc(O)cc3)C(=O)NC4)cc(c1OCCCC)Cc1cc(C(=O)Nc3cc4cc(c3)C(=O)NCC(=O)N[C@@H](CC(=O)O)C(=O)NCC(=O)N[C@@H](Cc3ccc(O)cc3)C(=O)NC4)cc(c1OCCCC)Cc1cc(C(=O)Nc3cc4cc(c3)C(=O)NCC(=O)N[C@@H](CC(=O)O)C(=O)NCC(=O)N[C@@H](Cc3ccc(O)cc3)C(=O)NC4)cc(c1OCCCC)C2 [GFB-111] | does indeed contain both PDGF-BB and GFB-111 | effective | – | 10 µM | 10 µM | – | 5 µM | – | – | strongly | – | 62% (30) and 53% (31) and 64% (27) | minimally affected | minimally affected | 10 µM | 3.63 ± 1.36 and 5.68 ± 1.74 | 2.34 ± 1.01 and 3.58 ± 1.01
